Experimental data taken from US12447170B2, “Use of maribavir in treatment regimens” (priority 2021, dated 2025).
“Also recorded” adds a separate entry of the source.

Assays:
[1] = Phase 2 studies for treatment of CMV infection/diseases: safety/tolerability; format: in vivo, human; conditions: doses up to 1200 mg BID
[2] = tested on: CYP1A2 mRNA; format: in vitro ADME; conditions: human, hepatocytes, 72 h
Description: (§1) Fresh human hepatocytes were treated with culture medium with maribavir concentrations of 36 μM, 144 μM, and 480 μM. […] Incubation was conducted at 37° C. for 72 hours, with daily replacement of medium with compound. […] Analysis of CYP expression was performed using qPCR with CYP-specific probes.

[3] = tested on: CYP2B6 mRNA; format: in vitro ADME; conditions: human, hepatocytes, 72 h
Description: as §1

[4] = Drug interaction summary: effect of co-administered drugs on maribavir pharmacokinetics (Tables 1-A, 1-B)
From the text: Drug interaction studies were summarized based on Example 2 and other available data (e.g., in vitro and clinical data).

[5] = parameters: species or system human; conditions: in vivo
From the text: It can be taken with or without food, and no dose adjustment is needed in patients with mild-to-moderate hepatic impairment or renal impairment. Maribavir has a low drug-interaction potential and there are minimal dose adjustments required (for example, only when taken concurrently with CYP3A4 inducers or certain immunosuppressants) and there are no effects on QT interval.

[6] = biological target: CYP2D6 (Homo sapiens, UniProt P10635); assay: Reversible CYP inhibition in human liver microsomes (HLM); format: in vitro ADME; parameters: from tissue; host or cells: human liver microsomes; conditions: up to 100 μM
Chain of CYP2D6 (P10635 whole entry, canonical isoform): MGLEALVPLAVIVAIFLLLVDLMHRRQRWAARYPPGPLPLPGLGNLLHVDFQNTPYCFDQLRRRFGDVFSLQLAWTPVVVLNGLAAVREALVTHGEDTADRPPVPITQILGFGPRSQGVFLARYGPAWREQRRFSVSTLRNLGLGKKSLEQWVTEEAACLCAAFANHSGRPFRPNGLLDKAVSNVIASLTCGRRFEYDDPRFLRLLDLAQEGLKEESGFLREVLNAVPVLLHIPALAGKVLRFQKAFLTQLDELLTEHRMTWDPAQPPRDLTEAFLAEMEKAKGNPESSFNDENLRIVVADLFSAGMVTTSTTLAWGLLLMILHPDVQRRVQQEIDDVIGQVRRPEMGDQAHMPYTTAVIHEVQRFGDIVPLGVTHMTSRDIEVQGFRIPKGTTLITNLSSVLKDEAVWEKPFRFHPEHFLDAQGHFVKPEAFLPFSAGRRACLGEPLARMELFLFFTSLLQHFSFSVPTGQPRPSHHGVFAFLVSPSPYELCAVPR
Description: (§2) HLM were used to evaluate maribavir's half maximal inhibitory concentration (IC50) on inhibition of activities of nine CYP isoforms. Probe substrates were phenacetin (CYP1A2), coumarin (CYP2A6), bupropion (CYP2B6), paclitaxel (CYP2C8), tolbutamide (CYP2C9), (S)-mephenytoin (CYP2C19), dextromethorphan (CYP2D6), clorzoxazone (CYP2E1), and midazolam and testosterone (CYP3A4).
(§3) CYP activities with 0, 0.1, 0.3, 1, 3, 10, 30, and 100 μM of maribavir were evaluated.

[7] = biological target: CYP2C9 (Homo sapiens, UniProt P11712); assay: as above; format: in vitro ADME; parameters: from tissue; host or cells: human liver microsomes
Chain of CYP2C9 (P11712 whole entry): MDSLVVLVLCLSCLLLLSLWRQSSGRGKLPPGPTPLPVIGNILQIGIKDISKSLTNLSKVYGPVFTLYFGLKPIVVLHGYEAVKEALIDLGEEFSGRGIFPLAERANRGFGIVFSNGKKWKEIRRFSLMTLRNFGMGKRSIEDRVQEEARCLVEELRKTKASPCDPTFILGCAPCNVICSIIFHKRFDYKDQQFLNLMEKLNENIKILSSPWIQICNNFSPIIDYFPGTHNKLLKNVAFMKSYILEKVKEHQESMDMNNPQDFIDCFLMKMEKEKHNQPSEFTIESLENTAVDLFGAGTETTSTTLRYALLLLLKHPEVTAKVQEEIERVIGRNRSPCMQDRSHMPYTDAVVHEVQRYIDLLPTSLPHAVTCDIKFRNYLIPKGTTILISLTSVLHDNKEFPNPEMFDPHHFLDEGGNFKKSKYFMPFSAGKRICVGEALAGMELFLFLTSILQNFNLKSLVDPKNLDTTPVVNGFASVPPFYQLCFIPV
Description: as §2, §3

[8] = biological target: T1, CYP1A2 (Homo sapiens, UniProt P05177); assay: as above; format: in vitro ADME; parameters: from tissue; host or cells: human liver microsomes
T1 sequence (P05177 1-516): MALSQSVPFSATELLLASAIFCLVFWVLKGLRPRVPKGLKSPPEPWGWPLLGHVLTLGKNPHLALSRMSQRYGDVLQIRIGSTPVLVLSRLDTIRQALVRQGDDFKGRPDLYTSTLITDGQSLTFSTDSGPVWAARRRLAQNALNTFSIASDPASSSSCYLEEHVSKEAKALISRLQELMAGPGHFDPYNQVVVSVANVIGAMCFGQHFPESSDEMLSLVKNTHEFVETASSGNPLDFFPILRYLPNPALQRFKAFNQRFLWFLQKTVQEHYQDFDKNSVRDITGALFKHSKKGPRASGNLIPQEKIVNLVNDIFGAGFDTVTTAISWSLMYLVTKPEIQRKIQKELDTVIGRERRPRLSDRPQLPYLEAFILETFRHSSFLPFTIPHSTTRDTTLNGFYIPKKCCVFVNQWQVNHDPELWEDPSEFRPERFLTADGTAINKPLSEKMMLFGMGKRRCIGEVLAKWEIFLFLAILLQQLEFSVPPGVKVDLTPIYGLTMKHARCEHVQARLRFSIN
Description: as §2, §3

[9] = biological target: CYP2C19 (Homo sapiens, UniProt P33261); assay: as above; format: in vitro ADME; parameters: from tissue; host or cells: human liver microsomes
Chain of CYP2C19 (P33261 whole entry): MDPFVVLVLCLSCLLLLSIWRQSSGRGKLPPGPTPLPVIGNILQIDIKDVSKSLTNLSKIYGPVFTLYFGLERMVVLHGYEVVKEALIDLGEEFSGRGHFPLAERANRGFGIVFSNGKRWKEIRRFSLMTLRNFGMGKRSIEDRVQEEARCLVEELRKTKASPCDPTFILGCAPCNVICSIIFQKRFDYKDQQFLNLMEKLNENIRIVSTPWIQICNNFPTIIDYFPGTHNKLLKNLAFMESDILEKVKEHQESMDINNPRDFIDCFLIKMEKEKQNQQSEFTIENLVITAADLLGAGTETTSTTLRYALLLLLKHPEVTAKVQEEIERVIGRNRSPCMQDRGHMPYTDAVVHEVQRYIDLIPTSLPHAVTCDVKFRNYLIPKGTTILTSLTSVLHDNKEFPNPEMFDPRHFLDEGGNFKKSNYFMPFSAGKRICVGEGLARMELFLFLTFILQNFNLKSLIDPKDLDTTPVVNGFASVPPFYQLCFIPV
Description: as §2, §3

[10] = biological target: T2, CYP2C8 (Homo sapiens, UniProt P10632); assay: as above; format: in vitro ADME; parameters: from tissue; host or cells: human liver microsomes; conditions: up to 100 μM
T2 sequence (P10632 1-490): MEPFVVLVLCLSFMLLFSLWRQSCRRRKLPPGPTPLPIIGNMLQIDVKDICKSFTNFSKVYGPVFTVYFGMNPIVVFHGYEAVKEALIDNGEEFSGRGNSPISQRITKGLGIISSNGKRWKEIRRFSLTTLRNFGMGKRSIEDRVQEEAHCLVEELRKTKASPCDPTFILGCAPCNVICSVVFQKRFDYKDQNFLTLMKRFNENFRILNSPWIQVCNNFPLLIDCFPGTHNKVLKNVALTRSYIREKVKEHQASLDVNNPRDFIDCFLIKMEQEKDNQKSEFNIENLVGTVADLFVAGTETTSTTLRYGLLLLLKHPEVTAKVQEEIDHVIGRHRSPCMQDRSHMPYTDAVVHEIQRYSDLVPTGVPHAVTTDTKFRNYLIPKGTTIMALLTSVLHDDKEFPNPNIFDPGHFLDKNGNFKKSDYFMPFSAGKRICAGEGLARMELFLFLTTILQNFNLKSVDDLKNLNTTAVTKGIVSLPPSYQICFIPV
Description: as §2, §3

[11] = Observed clinical interaction of maribavir with ketoconazole in healthy subjects; format: in vivo, human; conditions: for AUC(0-inf) / Cmax: human, in vivo, 400 mg
Description: A comparison of observed and predicted plasma concentrations of maribavir following a single oral dose of 400 mg administered in the absence of ketoconazole (a CYP3A4 inhibitor) and 1 hour after a single 400 mg dose of ketoconazole to healthy subjects was performed.

[12] = Aluminum hydroxide and magnesium hydroxide antacid 20 mL single dose, maribavir 100 mg single dose
[13] = Ketoconazole 400 mg single dose, maribavir 400 mg single dose
[14] = Rifampin 600 mg once daily, maribavir 400 mg twice daily

Question: With `CC(C)Nc1nc2cc(Cl)c(Cl)cc2n1[C@H]1O[C@@H](CO)[C@H](O)[C@@H]1O` [maribavir, (2S,3S,4R,5S)-2-(5,6-dichloro-2-(isopropylamino)-1H-benzo[d]imidazol-1-yl)-5-(hydroxymethyl)tetrahydrofuran-3,4-diol] as the compound, how does the safety/tolerability profile [1] read?
Answer: Its safety/tolerability profile is “no limiting toxicity”.

Question: What about the “CYP1A2 mRNA induction, % of the levels of positive controls” value [2] of the same compound?
Answer: The value was ≤ 11%.

Question: What about the “CYP2B6 mRNA induction, % of the levels of positive controls” value [3] of the same compound?
Answer: Its value is ≤ 11%.

Question: What about the “Geometric Mean Ratio of Maribavir PK with/without Co-administered Drug (No Effect = 1.00), AUC” value [4, 12] of the same compound?
Answer: The value was 0.89.

Question: What about the “Geometric Mean Ratio of Maribavir PK with/without Co-administered Drug (No Effect = 1.00), Cmax” value [4, 12] of the same compound?
Answer: The value was 0.84.

Question: And the “Geometric Mean Ratio of Maribavir PK with/without Co-administered Drug (No Effect = 1.00), AUC” value [4, 13]?
Answer: The value was 1.53.

Question: And the “Geometric Mean Ratio of Maribavir PK with/without Co-administered Drug (No Effect = 1.00), Cmax” value [4, 13]?
Answer: The value was 1.10.

Question: What about the “Geometric Mean Ratio of Maribavir PK with/without Co-administered Drug (No Effect = 1.00), AUC” value [4, 14] of the same compound?
Answer: Its value is 0.40.

Question: And the “Geometric Mean Ratio of Maribavir PK with/without Co-administered Drug (No Effect = 1.00), Cmax” value [4, 14]?
Answer: Its value is 0.61.

Question: And the “Geometric Mean Ratio of Maribavir PK with/without Co-administered Drug (No Effect = 1.00), Ctau” value ([4]; Rifampin 600 mg once daily, maribavir 400 mg twice daily, tau 12 hours)?
Answer: Its value is 0.18.

Question: What about the “effects on QT interval” value [5] of the same compound?
Answer: The value was “no effects”.

Question: What about the “reversible inhibition of CYP2D6” value [6] of the same compound?
Answer: Its value is “not a reversible inhibitor; also recorded: no significant inhibition”.

Question: What about the IC50 [7] of the same compound?
Answer: The IC50 was 18 µM.

Question: What about the IC50 [8] of the same compound?
Answer: The IC50 was 40 µM.

Question: What about the IC50 [9] of the same compound?
Answer: The IC50 was 35 µM.

Question: What about the “reversible inhibition of CYP2C8” value [10] of the same compound?
Answer: The value was “not a reversible inhibitor; also recorded: no significant inhibition”.

Question: And the AUC(0-inf) ([11]; observed Geometric mean)?
Answer: Its AUC(0-inf) is 183 µg·h/mL.

Question: What about the AUC(0-inf) ([11]; observed Mean) of the same compound?
Answer: The AUC(0-inf) was 194 µg·h/mL.

Question: And the Cmax ([11]; observed Geometric mean)?
Answer: The Cmax was 21300 ng/mL.

Question: And the Cmax ([11]; observed Mean)?
Answer: The Cmax was 21800 ng/mL.

Question: What about the “Ratio AUC(0-∞), observed Geometric mean” value ([11]; with/without ketoconazole) of the same compound?
Answer: Its value is 1.53.

Question: What about the “Ratio AUC(0-∞), observed Mean” value ([11]; with/without ketoconazole) of the same compound?
Answer: Its value is 1.55.

Question: And the “Ratio Cmax, observed Geometric mean” value ([11]; with/without ketoconazole)?
Answer: Its value is 1.10.

Question: And the “Ratio Cmax, observed Mean” value ([11]; with/without ketoconazole)?
Answer: The value was 1.12.
